# In article PMC13376213, “Systematic discovery of motif-based interactions of the auxiliary domains of USP family deubiquitinases” (Nature Communications, 2026):
# Where two headings read alike, the source gives them in different places. Peptide text beside a SMILES is read from it. * marks the point of attachment. FITC = O=C1OC2(c3ccc(O)cc3Oc3cc(O)ccc32)c2ccc(NC(=S)*)cc21
# Assays:
# Type in all cases: binding
# USP22 zf-UBP domain = molecular target: T1, USP22 zf-UBP domain (Homo sapiens, UniProt Q9UPT9); assay: FP-monitored affinity measurements, USP22 zf-UBP; settings: USP22_zf-UBP; FP displacement by unlabelled peptide
# T1 construct: USP22_zf-UBP; Q9UPT9; zf-UBP; 37; 130; 6xHis-GST (N, cleaved yes); made in house; host or cells: Escherichia coli BL21-Gold (DE3)
# T1 sequence (Q9UPT9 37-130): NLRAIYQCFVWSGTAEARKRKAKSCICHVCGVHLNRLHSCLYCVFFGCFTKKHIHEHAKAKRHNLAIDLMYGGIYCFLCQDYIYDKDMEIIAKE
# Protocol: (§1) Proteins were expressed in Escherichia coli (E.coli) BL21-Gold (DE3) bacteria. The cDNAs encoding N-terminal 6-histidine-glutathione S-transferase tagged (6xHis-GST), 6xHis-tagged or GST-tagged protein domains in pETM33, pETM11, pGEX6P1 expression vectors respectively, were obtained from Genescript or kindly provided by MRC-PPU (Suppl. Data 1) The bacteria were transformed with the plasmid and grew at 37 °C in 2YT (5 g/L NaCl, 16 g/L tryptone and 10 g/L yeast extract) supplemented with Kanamycin (30 μg/mL) until reaching an OD600 of 0.7. Protein expression was induced with 0.3 mM isopropyl β-D-1 thiogalactopyranoside (IPTG) for 18 h at 18 °C while shaking. For zinc-finger domains, 50 μM of ZnSO4 was added during expression. The bacterial cultures were pelleted for 15 minutes at 4000 x g at 4 °C and stored at −20 °C until purification. The pellets were resuspended in lysis buffer (1× phosphate-buffered saline (PBS), 0.5 % Triton-X, 5 mM MgCl2, 10 μg/mL lysozyme, cOmplete^TM EDTA-free protease inhibitor cocktail (Roche), 10 μg/mL DNAseI) and incubated for 1 h shaking at 4 °C. […] The supernatant was incubated with glutathione (GSH) Sepharose (Cytiva) or Ni2+ Sepharose (Cytiva) for 1 h at 4 °C while shaking. The beads with the bound protein were washed with 1x PBS and eluted with 10 mM reduced glutathione in 50 mM Tris pH 8.0. For fluorescence polarization experiments, the proteins were not eluted from the beads, and the 6xHis-GST tag was cleaved overnight on GSH Sepharose beads at 4 °C while shaking with PreScission Protease in cleavage buffer (50 mM Tris pH 7.5, 150 mM NaCl, 1 mM DTT). The sample containing the cleaved domain was separated from the tag and protease and buffer-exchanged to 50 mM sodium phosphate buffer pH 7.4 with 1 mM DTT using a PD-10 desalting column (Cytiva). The purity and size of the proteins were analyzed by SDS-PAGE electrophoresis.
# (§2) The measurements were performed at room temperature in a non-binding black half area 96-well plate (Corning) with a total volume of 50 μL per well. Peptides were obtained from GeneCust (France) with >95% purity. FITC-labeled peptides (N-terminally FITC-labeled without spacer and C-terminally amidated) were dissolved in dimethyl sulfoxide (DMSO), and unlabeled peptides (N-terminally acetylated and C-terminally amidated) were dissolved in 50 mM phosphate buffer pH 7.4. Saturation measurements were performed using a serial dilution of the protein domains in phosphate buffer (25 μL) and the addition of 10 nM FITC-labeled peptide (in phosphate buffer supplemented with 2 mM DTT) (25 μL). […] All measurements were performed in three technical replicates. The data were analyzed using GraphPad Prism version 9.2.0 for MacOS (GraphPad Software, San Diego, California USA, www.graphpad.com). The saturation curves were fitted to the quadratic equation, and the displacement curves were fitted to a sigmoidal dose-response equation as described previously.
# USP20 DUSP2 domain = molecular target: T2, USP20 DUSP2 domain (Homo sapiens, UniProt Q9Y2K6); assay: FP-monitored affinity measurements, USP20 DUSP2; settings: USP20_DUSP2; direct FP titration (saturation) of the FITC-labelled peptide; read-out: KD
# T2 construct: USP20_DUSP2; Q9Y2K6; DUSP2; 776; 894; 6xHis-GST (N, cleaved yes); made in house; host or cells: Escherichia coli BL21-Gold (DE3)
# Protocol: as §1, §2
# USP20 DUSP2 N805A = molecular target: T3, USP20 DUSP2 N805A (Homo sapiens, UniProt Q9Y2K6, N805A); assay: FP-monitored affinity measurements, USP20 DUSP2 single mutant; settings: USP20_DUSP2_N805A; direct FP titration (saturation) of the FITC-labelled peptide; read-out: KD
# T3 construct: USP20_DUSP2; Q9Y2K6; DUSP2; 776; 894; 6xHis-GST (N, cleaved yes); made in house; host or cells: Escherichia coli BL21-Gold (DE3)
# Protocol: (§3) Proteins were expressed in Escherichia coli (E.coli) BL21-Gold (DE3) bacteria. The cDNAs encoding N-terminal 6-histidine-glutathione S-transferase tagged (6xHis-GST), 6xHis-tagged or GST-tagged protein domains in pETM33, pETM11, pGEX6P1 expression vectors respectively, were obtained from Genescript or kindly provided by MRC-PPU (Suppl. Data 1) The bacteria were transformed with the plasmid and grew at 37 °C in 2YT (5 g/L NaCl, 16 g/L tryptone and 10 g/L yeast extract) supplemented with Kanamycin (30 μg/mL) until reaching an OD600 of 0.7. Protein expression was induced with 0.3 mM isopropyl β-D-1 thiogalactopyranoside (IPTG) for 18 h at 18 °C while shaking. For zinc-finger domains, 50 μM of ZnSO4 was added during expression. […] For fluorescence polarization experiments, the proteins were not eluted from the beads, and the 6xHis-GST tag was cleaved overnight on GSH Sepharose beads at 4 °C while shaking with PreScission Protease in cleavage buffer (50 mM Tris pH 7.5, 150 mM NaCl, 1 mM DTT). […] The purity and size of the proteins were analyzed by SDS-PAGE electrophoresis.
# (§4) The measurements were performed at room temperature in a non-binding black half area 96-well plate (Corning) with a total volume of 50 μL per well. […] The data were analyzed using GraphPad Prism version 9.2.0 for MacOS (GraphPad Software, San Diego, California USA, www.graphpad.com). […]
# USP20 DUSP2 K833E-K835E = molecular target: T4, USP20 DUSP2 K833E-K835E (Homo sapiens, UniProt Q9Y2K6, K833E/K835E); assay: FP-monitored affinity measurements, USP20 DUSP2 double mutant; settings: USP20_DUSP2_K833E/K835E; direct FP titration (saturation) of the FITC-labelled peptide; read-out: KD
# T4 construct: USP20_DUSP2; Q9Y2K6; DUSP2; 776; 894; 6xHis-GST (N, cleaved yes); made in house; host or cells: Escherichia coli BL21-Gold (DE3)
# Protocol: as §3, §4
# USP11 DUSP-UBL domain = molecular target: T5, USP11 DUSP-UBL domain (Homo sapiens, UniProt P51784); assay: FP-based affinity measurements, USP11 DUSP-UBL
# T5 construct: USP11_UBL; P51784; UBL; 6xHis-GST (N, cleaved yes); made in house; host or cells: Escherichia coli BL21-Gold (DE3)
# Protocol: as §1
# as §2, with “The saturation curves were fitted to the quadratic equation, and the displacement curves were fitted to a sigmoidal dose-response equation as described previously.” left out
# T5 sequence (P51784 67-288): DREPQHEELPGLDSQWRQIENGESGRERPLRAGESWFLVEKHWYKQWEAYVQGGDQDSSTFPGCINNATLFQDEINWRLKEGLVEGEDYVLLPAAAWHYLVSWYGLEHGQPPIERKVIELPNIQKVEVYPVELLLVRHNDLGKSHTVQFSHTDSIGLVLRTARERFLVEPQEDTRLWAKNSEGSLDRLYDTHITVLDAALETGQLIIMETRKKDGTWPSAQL
# T3 sequence (Q9Y2K6 with tags, fused parts or gaps N805A): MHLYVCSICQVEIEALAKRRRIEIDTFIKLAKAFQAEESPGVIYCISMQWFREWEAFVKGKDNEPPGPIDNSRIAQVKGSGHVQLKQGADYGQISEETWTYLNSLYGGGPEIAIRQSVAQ
# T4 sequence (Q9Y2K6 with tags, fused parts or gaps K833E/K835E): as the sequence (Q9Y2K6 with tags, fused parts or gaps N805A) above, with A31N, K59E, K61E counted along it
# T2 sequence (Q9Y2K6 with tags, fused parts or gaps): as the sequence (Q9Y2K6 with tags, fused parts or gaps N805A) above, with A31N counted along it
compound,measurement,setting,value
Ac-VPSLDDFAGQSWSSWVE-NH2 [ATXN7L2_18-34],Kd,USP22 zf-UBP domain,19.3 µM
Ac-VPSPEAFLGKPWSSWIDAAKLH-NH2 [ATXN7L1_36-57],Kd,USP22 zf-UBP domain,0.1 µM
CC[C@H](C)[C@H](NC(=O)[C@H](CC(N)=O)NC(=O)[C@H](Cc1c[nH]c2ccccc12)NC(=O)[C@H](C)NC(=O)[C@H](CC(C)C)NC(=O)[C@H](CC(=O)O)NC(=O)[C@H](CC(=O)O)NC(=O)[C@H](CC(=O)O)NC(=O)[C@H](CO)NC(=S)Nc1ccc2c(c1)C(=O)OC21c2ccc(O)cc2Oc2cc(O)ccc21)C(=O)N[C@@H](C)C(=O)N1CCC[C@H]1C(=O)N[C@@H](CCC(N)=O)C(=O)NCC(=O)N[C@@H](CC(C)C)C(=O)N[C@@H](CCC(N)=O)C(N)=O [FITC_GPR137B] ({FITC}-SDDDLAWNIAPQGLQ-NH2),Kd,USP20 DUSP2 domain,5.14 µM
same,Kd,USP20 DUSP2 N805A,~140 µM
same,Kd,USP20 DUSP2 K833E-K835E,~293 µM
Ac-SAVTYPDWIGQSYSEV-NH2 [ORAI1_USP11],Kd,"USP11 DUSP-UBL domain; USP11_DUSP_UBL, FP displacement of the FITC-labelled peptide by unlabelled peptide, read-out: KD",~207 µM
CC[C@H](C)[C@H](NC(=O)[C@H](Cc1c[nH]c2ccccc12)NC(=O)[C@H](CC(=O)O)NC(=O)[C@@H]1CCCN1C(=O)[C@H](Cc1ccc(O)cc1)NC(=O)[C@@H](NC(=O)[C@@H](NC(=O)[C@H](C)NC(=O)[C@H](CO)NC(=S)Nc1ccc2c(c1)C(=O)OC21c2ccc(O)cc2Oc2cc(O)ccc21)C(C)C)[C@@H](C)O)C(=O)NCC(=O)N[C@@H](CCC(N)=O)C(=O)N[C@@H](CO)C(=O)N[C@@H](Cc1ccc(O)cc1)C(=O)N[C@@H](CO)C(=O)N[C@@H](CCC(=O)O)C(=O)N[C@H](C(N)=O)C(C)C [FITC-ORA1] ({FITC}-SAVTYPDWIGQSYSEV-NH2),Kd,"USP11 DUSP-UBL domain; FP saturation, FITC-labeled peptide, technical triplicates, read-out: KD, USP11 DUSP-UBL, labeled peptide (direct binding)",> 290 µM
Ac-VPSPEAFLGKPWSSWID-NH2 [ATXN7L1_36-52],Kd,USP22 zf-UBP domain,11 µM
